Experimental data from US11312712B2, “Azabenzimidazoles and their use as AMPA receptor modulators” (Janssen Pharmaceutica NV, priority 2015, dated 2022).

These compounds were tested against GluA1o-γ8 (GRIA1o-CACNG8 fusion construct) (Homo sapiens (Human), UniProt P42261+Q8WXS5) (assay: Calcium flux assay (FLIPR), inhibition of TARP γ8 dependent AMPA receptor activity). Conditions: GluA1o-γ8 (GRIA1o-CACNG8 fusion) in HEK293 cells, calcium flux after 15 μM glutamate.
Format: cell-based
Source text: This assay was used to test compounds for their ability to inhibit TARP γ8 dependent AMPA receptor activity. The AMPA receptor is a non-selective cation channel activated by glutamate. Ionotropic glutamate receptors normally desensitize too rapidly to allow detectable calcium influx in a FLIPR assay (Strange et al. (2006). “Functional characterisation of homomeric ionotropic glutamate receptors GluR1-GluR6 in a fluorescence-based high throughput screening assay.” Comb Chem High Throughput Screen 9(2): 147-158). But, this desensitization is incomplete, and a substantial steady-state current remains in the sustained presence of glutamate (Cho et al. (2007). “Two families of TARP isoforms that have distinct effects on the kinetic properties of AMPA receptors and synaptic currents.” Neuron 55(6): 890-904).
An in vitro assay was used to determine the potency of test compounds as inhibitors of the glutamate response of the channel formed by GluA1o-γ8. To ensure a 1:1 stoichiometry of GluA1o and γ8 subunits in the expressed channel, a fusion of the cDNAs for GRIA1o and CACNG8 was used. Following Shi et al (2009) “The stoichiometry of AMPA receptors and TARPs varies by neuronal cell type.” Neuron 62(5): 633-640), the C-terminus of the cDNA for GRIA1o was fused to the N-terminus of the cDNA for γ8. The linker sequence was QQQQQQQQQQEFAT. Channels expressed with this construct appear to have similar properties to channels formed by co-expression of GRIA1o with an excess of CACNG8 (Shi et al. 2009). A clonal cell line in HEK293 cells stably expressing this construct, with a geneticin selection marker, was generated for use in this assay.
Cell expressing the GRIA1o-CACNG8 fusion construct were grown in a monolayer in 96- or 384-well microtiter plates. They were washed with assay buffer (135 mM NaCl, 4 mM KCl, 3 mM CaCl2, 1 mM MgCl2, 5 mM glucose, 10 mM HEPES, pH 7.4, 300 mOs) using a Biotek EL405 plate washer. The cells were then loaded with a calcium-sensitive dye (Calcium-5 or Calcium-6, Molecular Devices) and the test compounds at a range of concentrations. Calcium flux following the addition of 15 μM glutamate was monitored using a Molecular Devices FLIPR Tetra. The fluorescence in each well was normalized to the fluorescence of negative and positive control wells. The negative control wells had no added compounds, and the positive control wells had been incubated with 10 μM CP465022 (a non-subtype-selective AMPA receptor antagonist) (Lazzaro et al. (2002). “Functional characterization of CP-465,022, a selective, noncompetitive AMPA receptor antagonist.” Neuropharmacology 42(2): 143-153). The responses to glutamate as functions of the test compound concentrations were fitted to a four-parameter logistic function. The fitted parameter corresponding to the midpoint was taken to be the potency of inhibition of the compound. The data in Table 4 below illustrates the observed potentcy for the compounds described herein. pIC50 refers to the negative log of the IC50 in molar.

Sequence of GluA1o-γ8 (GRIA1o-CACNG8 fusion construct) (P42261 other isoform, or with tags, fused parts or gaps): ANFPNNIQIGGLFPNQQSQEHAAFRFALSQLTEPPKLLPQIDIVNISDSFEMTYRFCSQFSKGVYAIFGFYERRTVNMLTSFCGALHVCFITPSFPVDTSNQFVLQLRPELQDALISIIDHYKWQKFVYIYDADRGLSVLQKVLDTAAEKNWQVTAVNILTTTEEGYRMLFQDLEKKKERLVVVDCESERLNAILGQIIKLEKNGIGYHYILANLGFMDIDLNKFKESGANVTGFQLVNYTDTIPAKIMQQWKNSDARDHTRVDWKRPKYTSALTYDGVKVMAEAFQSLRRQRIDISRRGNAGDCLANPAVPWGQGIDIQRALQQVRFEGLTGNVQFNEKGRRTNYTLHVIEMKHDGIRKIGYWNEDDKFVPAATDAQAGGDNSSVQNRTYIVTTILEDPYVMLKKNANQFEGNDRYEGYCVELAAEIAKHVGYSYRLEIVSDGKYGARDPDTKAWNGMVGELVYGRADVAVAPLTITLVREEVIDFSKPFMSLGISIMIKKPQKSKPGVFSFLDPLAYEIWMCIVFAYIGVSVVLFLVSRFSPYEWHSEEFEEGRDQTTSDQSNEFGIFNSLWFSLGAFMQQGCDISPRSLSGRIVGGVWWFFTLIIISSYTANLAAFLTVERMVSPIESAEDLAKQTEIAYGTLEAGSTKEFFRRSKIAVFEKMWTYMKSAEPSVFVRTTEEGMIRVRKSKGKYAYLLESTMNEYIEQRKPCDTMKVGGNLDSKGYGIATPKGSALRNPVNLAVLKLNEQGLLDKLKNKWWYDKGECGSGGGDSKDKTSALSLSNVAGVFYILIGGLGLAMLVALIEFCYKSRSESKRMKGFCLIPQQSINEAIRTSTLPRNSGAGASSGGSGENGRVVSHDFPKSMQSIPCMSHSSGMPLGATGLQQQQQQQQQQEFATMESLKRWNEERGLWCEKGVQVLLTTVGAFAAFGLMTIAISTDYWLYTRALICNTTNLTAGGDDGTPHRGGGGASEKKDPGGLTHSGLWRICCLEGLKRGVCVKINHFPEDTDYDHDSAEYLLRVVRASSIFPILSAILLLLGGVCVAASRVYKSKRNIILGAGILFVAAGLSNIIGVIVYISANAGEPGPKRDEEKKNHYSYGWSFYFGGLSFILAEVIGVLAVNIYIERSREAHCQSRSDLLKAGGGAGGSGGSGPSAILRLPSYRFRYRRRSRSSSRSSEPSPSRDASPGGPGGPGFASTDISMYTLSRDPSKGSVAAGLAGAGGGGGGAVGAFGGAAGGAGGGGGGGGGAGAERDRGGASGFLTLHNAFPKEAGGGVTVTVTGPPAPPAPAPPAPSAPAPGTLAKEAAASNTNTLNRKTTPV

Compound | IC50
O=C1Cc2cc(-n3c(C4CCOC4)nc4ccc(C(F)(F)F)nc43)ccc2N1 (racemic) [Example 52, (racemic)-5-[2-Tetrahydrofuran-3-yl-5-(trifluoromethyl)imidazo[4,5-b]pyridin-3-yl]indolin-2-one] | 20 nM
CCC(C)c1nc2ccc(C(F)(F)F)nc2n1-c1ccc2c(c1)CC(=O)N2 (racemic) [Example 96, (racemic)-5-[2-sec-Butyl-5-(trifluoromethyl)imidazo[4,5-b]pyridin-3-yl]indolin-2-one] | 6.31 nM
FC(F)(F)c1ccc2nc(C3CCOC3)n(-c3ccc4[nH]ncc4c3)c2n1 (racemic) [Example 100, (racemic)-3-(1H-Indazol-5-yl)-2-tetrahydrofuran-3-yl-5-(trifluoromethyl)imidazo[4,5-b]pyridine] | 251 nM
CCC(C)c1nc2ccc(C(F)(F)F)nc2n1-c1ccc2[nH]ncc2c1 (racemic) [Example 102, (racemic)-3-(1H-Indazol-5-yl)-2-sec-butyl-5-(trifluoromethyl)imidazo[4,5-b]pyridine] | 10 nM
O=c1[nH]c2ccc(-n3c(C4CCOC4)nc4ccc(C(F)(F)F)nc43)cc2o1 (racemic) [Example 161, (R/S)-6-[2-Tetrahydrofuran-3-yl-5-(trifluoromethyl)imidazo[4,5-b]pyridin-3-yl]-3H-1,3-benzoxazol-2-one] | 316 nM
O=C1Cc2cc(-n3c(C4CCOC4)cc4ccc(C(F)(F)F)nc43)cc(F)c2N1 (racemic) [Example 365, (RS)-7-Fluoro-5-[2-tetrahydrofuran-3-yl-6-(trifluoromethyl)pyrrolo[2,3-b]pyridin-1-yl]indolin-2-one] | 0.2 nM
Cc1cc(-n2c([C@H](C)F)nc3ccc(C(F)(F)F)nc32)cc2cn[nH]c12 (single isomer, unassigned) [Example 257, (*S)-2-(1-Fluoroethyl)-3-(7-methyl-1H-indazol-5-yl)-5-(trifluoromethyl)imidazo[4,5-b]pyridine] | 0.0501 nM
CC[C@@H](C)c1nc2ccc(C(F)(F)F)nc2n1-c1cc(C)c2[nH]ncc2c1 (single isomer, unassigned) [Example 406, (*R)-2-(sec-Butyl)-3-(7-methyl-1H-indazol-5-yl)-5-(trifluoromethyl)-3H-imidazo[4,5-b]pyridine] | 0.126 nM
FC(F)(F)c1ccc2nc(-c3ccccc3)n(-c3ccc4[nH]ncc4c3)c2n1 [Example 1, 3-(1H-Indazol-5-yl)-2-phenyl-5-(trifluoromethyl)-3H-imidazo[4,5-b]pyridine] | 0.398 nM
c1ccc(-c2nc3cccnc3n2-c2ccc3[nH]ncc3c2)cc1 [Example 2, 3-(1H-Indazol-5-yl)-2-phenyl-imidazo[4,5-b]pyridine] | 50.1 nM
Cc1ccc2nc(-c3ccc(F)cc3)n(-c3ccc4[nH]ncc4c3)c2n1 [Example 4, 2-(4-Fluorophenyl)-3-(1H-indazol-5-yl)-5-methyl-imidazo[4,5-b]pyridine] | 1 nM
COc1ccc2nc(-c3ccc(F)cc3)n(-c3ccc4[nH]ccc4c3)c2n1 [Example 5, 2-(4-Fluorophenyl)-3-(1H-indol-5-yl)-5-methoxy-imidazo[4,5-b]pyridine] | 39.8 nM
COc1ccc2nc(-c3ccc(F)cc3)n(-c3ccc4c(c3)CC(=O)N4)c2n1 [Example 6, 5-[2-(4-Fluorophenyl)-5-methoxy-imidazo[4,5-b]pyridin-3-yl]indolin-2-one] | 39.8 nM
Fc1ccc(-c2nc3ccc(Cl)nc3n2-c2ccc3[nH]ncc3c2)cc1 [Example 7, 5-Chloro-2-(4-fluorophenyl)-3-(1H-indazol-5-yl)imidazo[4,5-b]pyridine] | 2 nM
Cc1ccc2nc(-c3ccccc3Cl)n(-c3ccc4[nH]ncc4c3)c2n1 [Example 8, 2-(2-Chlorophenyl)-3-(1H-indazol-5-yl)-5-methyl-imidazo[4,5-b]pyridine] | 63.1 nM
Clc1ccc2nc(-c3ccccc3)n(-c3ccc4[nH]ncc4c3)c2n1 [Example 10, 5-Chloro-3-(1H-indazol-5-yl)-2-phenyl-imidazo[4,5-b]pyridine] | 1 nM
Clc1ccc2nc(C3CCCC3)n(-c3ccc4[nH]ncc4c3)c2n1 [Example 11, 5-Chloro-2-cyclopentyl-3-(1H-indazol-5-yl)imidazo[4,5-b]pyridine] | 10 nM
FC(F)(F)c1ccc2nc(-c3ccccc3)n(-c3ccc4[nH]ccc4c3)c2n1 [Example 13, 3-(1H-Indol-5-yl)-2-phenyl-5-(trifluoromethyl)imidazo[4,5-b]pyridine] | 2 nM

More lines, in order of falling IC50, values ahead:

IC50 | Compound
31.6 nM | COC(C)c1cc2cccnc2n1-c1cc(C)c2c(c1)CC(=O)N2 (racemic) [Example 368, (RS)-5-[2-(1-Methoxyethyl)pyrrolo[2,3-b]pyridin-1-yl]-7-methyl-indolin-2-one]
25.1 nM | Cc1cnc2c(c1)nc(-c1ccccc1)n2-c1ccc2[nH]ncc2c1 [Example 9, 3-(1H-Indazol-5-yl)-6-methyl-2-phenyl-imidazo[4,5-b]pyridine]
20 nM | Cc1ccc2nc(-c3ccccc3)n(-c3ccc4c(cnn4C(=O)OC(C)(C)C)c3)c2n1 [Example 12, tert-Butyl 5-(5-methyl-2-phenyl-imidazo[4,5-b]pyridin-3-yl)indazole-1-carboxylate]
5.01 nM | CC(F)c1nc2ccc(C(F)(F)F)nc2n1-c1ccc2[nH]ncc2c1 (racemic) [Example 117, (R/S)-2-(1-fluoroethyl)-3-(1H-indazol-5-yl)-5-(trifluoromethyl)imidazo[4,5-b]pyridine]
3.16 nM | O=c1[nH]c2ccc(-n3c(-c4ccccc4)nc4ccc(F)nc43)cc2s1 [Example 15, 6-(5-Fluoro-2-phenyl-imidazo[4,5-b]pyridin-3-yl)-3H-1,3-benzothiazol-2-one]
0.794 nM | Cc1ccc2nc(-c3ccccc3)n(-c3ccc4[nH]ncc4c3)c2n1 [Example 3, 3-(1H-Indazol-5-yl)-5-methyl-2-phenyl-imidazo[4,5-b]pyridine]
0.158 nM | O=c1[nH]c2ccc(-n3c(-c4ccccc4)nc4ccc(C(F)(F)F)nc43)cc2s1 [Example 14, 6-[2-Phenyl-5-(trifluoromethyl)imidazo[4,5-b]pyridin-3-yl]-3H-1,3-benzothiazol-2-one]
0.1 nM | CC[C@@H](C)c1nc2ccc(C(F)(F)F)nc2n1-c1cc(Cl)c2[nH]ncc2c1 (single isomer, unassigned) [Example 404, (*R)-2-(sec-Butyl)-3-(7-chloro-1H-indazol-5-yl)-5-(trifluoromethyl)-3H-imidazo[4,5-b]pyridine]
0.1 nM | CC[C@H](C)c1nc2ccc(C(F)(F)F)nc2n1-c1cc(C)c2[nH]ncc2c1 (single isomer, unassigned) [Example 407, (*S)-2-(sec-Butyl)-3-(7-methyl-1H-indazol-5-yl)-5-(trifluoromethyl)-3H-imidazo[4,5-b]pyridine]
0.1 nM | C[C@@H](F)c1nc2ccc(C(F)(F)F)nc2n1-c1cc(Cl)c2[nH]ncc2c1 (single isomer, unassigned) [Example 408, (*R)-3-(7-Chloro-1H-indazol-5-yl)-2-(1-fluoroethyl)-5-(trifluoromethyl)-3H-imidazo[4,5-b]pyridine]
0.0794 nM | Cc1cc(-n2c([C@@H](C)F)nc3ccc(C(F)(F)F)nc32)cc2cn[nH]c12 (single isomer, unassigned) [Example 256, (*R)-2-(1-Fluoroethyl)-3-(7-methyl-1H-indazol-5-yl)-5-(trifluoromethyl)imidazo[4,5-b]pyridine]
0.0794 nM | C[C@H](F)c1nc2ccc(C(F)(F)F)nc2n1-c1cc(Cl)c2[nH]ncc2c1 (single isomer, unassigned) [Example 409, (*S)-3-(7-Chloro-1H-indazol-5-yl)-2-(1-fluoroethyl)-5-(trifluoromethyl)-3H-imidazo[4,5-b]pyridine]
0.0631 nM | CC[C@H](C)c1nc2ccc(C(F)(F)F)nc2n1-c1cc(Cl)c2[nH]ncc2c1 (single isomer, unassigned) [Example 405, (*S)-2-(sec-Butyl)-3-(7-chloro-1H-indazol-5-yl)-5-(trifluoromethyl)-3H-imidazo[4,5-b]pyridine]
